Assay results taken from patent US12441754B2, “Galactoside inhibitor of galectins” (GALECTO BIOTECH AB, priority 2019, dated 2025).
pKd: −log10 of the molar value.

Legend:
[1] = target: Galectin-3 (Homo sapiens, UniProt P17931); assay: fluorescence anisotropy assay, compound as inhibitor of galectin / fluorescein tagged saccharide probe interaction; format: binding
Description: (§1) Anal. Biochem. 334: 36-47, (Sörme et al., 2004) and Monovalent interactions of Galectin-1 By Salomonsson, Emma; Larumbe, Amaia; Tejler, Johan; Tullberg, Erik; Rydberg, Hanna; Sundin, Anders; Khabut, Areej; Frejd, Torbjorn; Lobsanov, Yuri D.; Rini, James M.; et al, From Biochemistry (2010), 49(44), 9518-9532, (Salomonsson et al., 2010).

[2] = target: Galectin-1 (Homo sapiens, UniProt P09382); assay: as above; format: binding
Description: as §1

Sequence of Galectin-3 (P17931 whole entry): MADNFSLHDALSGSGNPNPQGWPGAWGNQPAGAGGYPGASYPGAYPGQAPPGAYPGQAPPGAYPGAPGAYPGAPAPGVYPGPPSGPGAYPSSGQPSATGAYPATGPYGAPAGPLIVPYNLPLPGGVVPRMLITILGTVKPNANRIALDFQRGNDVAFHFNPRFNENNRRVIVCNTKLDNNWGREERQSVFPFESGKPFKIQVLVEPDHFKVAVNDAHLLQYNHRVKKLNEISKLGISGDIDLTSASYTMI
Sequence of Galectin-1 (P09382 whole entry): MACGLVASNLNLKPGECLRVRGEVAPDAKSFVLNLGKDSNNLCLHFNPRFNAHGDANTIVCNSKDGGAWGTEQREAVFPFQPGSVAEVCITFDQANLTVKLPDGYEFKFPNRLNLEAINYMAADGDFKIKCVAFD

| Compound | pKd [1] | pKd [2] |
| --- | --- | --- |
| OC[C@H]1O[C@H](Sc2cc(Cl)cnc2-c2ncc[nH]2)[C@H](O)[C@@H](n2cc(-c3csc(O)n3)nn2)[C@H]1O [Example 75, 5-Chloro-2-(1H-imidazol-2-yl)pyridin-3-yl 3-deoxy-3-[4-(2-hydroxythiazol-4-yl)-1H-1,2,3-triazol-1-yl]-1-thio-α-D-galactopyranoside] | 5.11 | 6.89 |
| CO[C@@H]1[C@@H](n2cc(-c3nc(Cl)cs3)nn2)[C@@H](O)[C@@H](CO)O[C@@H]1Sc1cc(Cl)cnc1-c1ccccn1 [Example 76, 5-Chloro-2-(pyridin-2-yl)-pyridin-3-yl 3-[4-(4-chlorothiazol-2-yl)-1H-1,2,3-triazol-1-yl]-3-deoxy-2-O-methyl-1-thio-α-D-galactopyranoside] | 6.82 | 8.00 |
| Cc1cnc(C#N)c(S[C@H]2O[C@H](CO)[C@H](O)[C@H](n3cc(-c4nc(Cl)cs4)nn3)[C@H]2O)c1 [Example 77, 2-Cyano-5-methylpyridin-3-yl 3-[4-(4-chlorothiazol-2-yl)-1H-1,2,3-triazol-1-yl]-3-deoxy-1-thio-α-D-galactopyranoside] | 6.07 | 6.08 |
| Nc1nc(-c2cn([C@H]3[C@@H](O)[C@@H](CO)O[C@H](Sc4ccc(Cl)c(Cl)c4)[C@@H]3OCC(F)(F)F)nn2)cs1 [Example 78, 3,4-Dichlorophenyl 3-[4-(2-aminothiazol-4-yl)-1H-1,2,3-triazol-1-yl]-3-deoxy-2-O-(2,2,2-trifluoroethyl)-1-thio-α-D-galactopyranoside] | 5.14 | 6.28 |
| OC[C@H]1O[C@H](Sc2ccc(Cl)c(Cl)c2)[C@H](OCC(F)(F)F)[C@@H](n2cc(-c3csc(O)n3)nn2)[C@H]1O [Example 79, 3,4-Dichlorophenyl 3-deoxy-2-O-(2,2,2-trifluoroethyl)-3-[4-(2-hydroxythiazol-4-yl)-1H-1,2,3-triazol-1-yl]-1-thio-α-D-galactopyranoside] | 5.17 | 6.34 |
| C#Cc1cncc(S[C@H]2O[C@H](CO)[C@H](O)[C@H](n3cc(-c4nc(Cl)cs4)nn3)[C@H]2O)c1 [Example 80, 5-Ethynylpyridin-3-yl 3-[4-(4-chlorothiazol-2-yl)-1H-1,2,3-triazol-1-yl]-3-deoxy-1-thio-α-D-galactopyranoside] | 6.44 | 6.51 |
| C#Cc1cncc(S[C@H]2O[C@H](CO)[C@H](O)[C@H](n3cc(-c4csc(N)n4)nn3)[C@H]2OC)c1 [Example 81, 5-Ethynylpyridin-3-yl 3-[4-(2-aminothiazol-4-yl)-1H-1,2,3-triazol-1-yl]-3-deoxy-2-O-methyl-1-thio-α-D-galactopyranoside] | 5.18 | 6.72 |
| CO[C@@H]1[C@@H](n2cc(-c3nc(Cl)cs3)nn2)[C@@H](O)[C@@H](CO)O[C@@H]1Sc1cncc(C#N)c1 [Example 82, 5-Cyanopyridin-3-yl 3-[4-(4-chlorothiazol-2-yl)-1H-1,2,3-triazol-1-yl]-3-deoxy-2-O-methyl-1-thio-α-D-galactopyranoside] | 6.28 | 6.77 |
| CO[C@@H]1[C@@H](n2cc(-c3csc(O)n3)nn2)[C@@H](O)[C@@H](CO)O[C@@H]1Sc1cncc(C#N)c1 [Example 83, 5-Cyanopyridin-3-yl 3-deoxy-3-[4-(2-hydroxythiazol-4-yl)-1H-1,2,3-triazol-1-yl]-2-O-methyl-1-thio-α-D-galactopyranoside] | 5.24 | 6.82 |
| C#Cc1cnc(C#N)c(S[C@H]2O[C@H](CO)[C@H](O)[C@H](n3cc(-c4csc(N)n4)nn3)[C@H]2O)c1 [Example 84, 2-Cyano-5-ethynylpyridin-3-yl 3-[4-(2-aminothiazol-4-yl)-1H-1,2,3-triazol-1-yl]-3-deoxy-1-thio-α-D-galactopyranoside] | 5.39 | 6.27 |
| C#Cc1cnc(C#N)c(S[C@H]2O[C@H](CO)[C@H](O)[C@H](n3cc(-c4csc(N)n4)nn3)[C@H]2OC)c1 [Example 85, 2-Cyano-5-ethynylpyridin-3-yl 3-[4-(2-aminothiazol-4-yl)-1H-1,2,3-triazol-1-yl]-3-deoxy-2-O-methyl-1-thio-α-D-galactopyranoside] | 5.11 | 6.96 |
| CCO[C@@H]1[C@@H](n2cc(-c3nc(Cl)cs3)nn2)[C@@H](O)[C@@H](CO)O[C@@H]1Sc1cc(Br)cnc1C#N [Example 86, 5-Bromo-2-cyanopyridin-3-yl 3-[4-(4-chlorothiazol-2-yl)-1H-1,2,3-triazol-1-yl]-3-deoxy-2-O-ethyl-1-thio-α-D-galactopyranoside] | 6.77 | 7.66 |
| CCO[C@@H]1[C@@H](n2cc(-c3csc(N)n3)nn2)[C@@H](O)[C@@H](CO)O[C@@H]1Sc1ccc(Cl)c(Cl)c1 [Example 87, 3,4-Dichlorophenyl 3-[4-(2-aminothiazol-4-yl)-1H-1,2,3-triazol-1-yl]-3-deoxy-2-O-ethyl-1-thio-α-D-galactopyranoside] | 5.26 | 6.96 |
| CCOC1C(n2cc(-c3csc(N)n3)nn2)[C@@H](O)C(CO)O[C@@H]1Sc1ccc(C#N)c(Cl)c1 (stereo partly shown) [Example 88] | 5.11 | 6.89 |
| N#Cc1ccc(S[C@@H]2C[C@@H](n3cc(-c4csc(O)n4)nn3)[C@@H](O)[C@@H](CO)O2)cc1Cl [Example 89, 3-Chloro-4-cyanophenyl 2,3-dideoxy-3-[4-(2-hydroxythiazol-4-yl)-1H-1,2,3-triazol-1-yl]-1-thio-α-D-galactopyranoside] | 4.98 | 6.68 |
| CCO[C@@H]1[C@@H](n2cc(-c3nc(Cl)cs3)nn2)[C@@H](O)[C@@H](CO)O[C@@H]1Sc1cc(Br)cnc1C(=O)N(C)C [Example 90, 5-Bromo-2-(N,N-dimethylcarbamoyl)pyridin-3-yl 3-[4-(4-chlorothiazol-2-yl)-1H-1,2,3-triazol-1-yl]-3-deoxy-2-O-ethyl-1-thio-α-D-galactopyranoside] | 7.36 | 8.07 |
| C#Cc1cnc(C(=O)N(C)C)c(S[C@H]2O[C@H](CO)[C@H](O)[C@H](n3cc(-c4nc(Cl)cs4)nn3)[C@H]2OC)c1 [Example 91, 5-Ethynyl-2-(N,N-dimethylcarbamoyl)pyridin-3-yl 3-[4-(4-chlorothiazol-2-yl)-1H-1,2,3-triazol-1-yl]-3-deoxy-2-O-methyl-1-thio-α-D-galactopyranoside] | 7.29 | 7.62 |
| C#Cc1cnc(C(=O)N2CCC2)c(S[C@H]2OC(CO)[C@H](O)C(n3cc(-c4nc(Cl)cs4)nn3)C2OC)c1 (stereo partly drawn) [Example 92, 2-(N-Azetidinylcarbamoyl)-5-ethynylpyridin-3-yl 3-[4-(4-chlorothiazol-2-yl)-1H-1,2,3-triazol-1-yl]-3-deoxy-2-O-methyl-1-thio-α-D-galactopyranoside] | 7.00 | 7.49 |
| CNC(=O)c1ncc(Cl)cc1S[C@H]1O[C@H](CO)[C@H](O)[C@H](n2cc(-c3nc(Cl)cs3)nn2)[C@H]1OC [Example 93, 5-Chloro-2-(N-methylcarbamoyl)pyridin-3-yl 3-[4-(4-chlorothiazol-2-yl)-1H-1,2,3-triazol-1-yl]-3-deoxy-2-O-methyl-1-thio-α-D-galactopyranoside] | 7.32 | 7.82 |
| CCNC(=O)c1ncc(Cl)cc1S[C@H]1O[C@H](CO)[C@H](O)[C@H](n2cc(-c3nc(Cl)cs3)nn2)[C@H]1OC [Example 94, 5-Chloro-2-(N-ethylcarbamoyl)pyridin-3-yl 3-[4-(4-chlorothiazol-2-yl)-1H-1,2,3-triazol-1-yl]-3-deoxy-2-O-methyl-1-thio-α-D-galactopyranoside] | 7.13 | 7.92 |
| CCO[C@@H]1[C@@H](n2cc(-c3nc(Cl)cs3)nn2)[C@@H](O)[C@@H](CO)O[C@@H]1Sc1cc(Cl)cnc1C(=O)NC [Example 95, 5-Chloro-2-(N-methylcarbamoyl)pyridin-3-yl 3-[4-(4-chlorothiazol-2-yl)-1H-1,2,3-triazol-1-yl]-3-deoxy-2-O-ethyl-1-thio-α-D-galactopyranoside] | 7.03 | 8.10 |
| CO[C@@H]1[C@@H](n2cc(-c3nc(Cl)cs3)nn2)[C@@H](O)[C@@H](CO)O[C@@H]1Sc1cc(Cl)ccc1C#N [Example 96, 5-Chloro-2-cyanophenyl 3-[4-(4-chlorothiazol-2-yl)-1H-1,2,3-triazol-1-yl]-3-deoxy-2-O-methyl-1-thio-α-D-galactopyranoside] | 6.68 | 7.66 |
| CO[C@@H]1[C@@H](n2cc(-c3nc(Cl)cs3)nn2)[C@@H](O)[C@@H](CO)O[C@@H]1Sc1ccc2ncsc2c1 [Example 97, 1,3-Benzothiazol-6-yl 3-[4-(4-chlorothiazol-2-yl)-1H-1,2,3-triazol-1-yl]-3-deoxy-2-O-methyl-1-thio-α-D-galactopyranoside] | 6.49 | 7.08 |
| CO[C@@H]1[C@@H](n2cc(-c3csc(O)n3)nn2)[C@@H](O)[C@@H](CO)O[C@@H]1Sc1ccc2ncsc2c1 [Example 98, 1,3-Benzothiazol-6-yl 3-deoxy-3-[4-(2-hydroxythiazol-4-yl)-1H-1,2,3-triazol-1-yl]-2-O-methyl-1-thio-α-D-galactopyranoside] | 5.19 | 7.19 |
| CO[C@@H]1[C@@H](n2cc(-c3csc(N)n3)nn2)[C@@H](O)[C@@H](CO)O[C@@H]1Sc1ccc2ncsc2c1 [Example 99, 1,3-Benzothiazol-6-yl 3-[4-(2-aminothiazol-4-yl)-1H-1,2,3-triazol-1-yl]-3-deoxy-2-O-methyl-1-thio-α-D-galactopyranoside] | 5.12 | 6.74 |
| CO[C@@H]1[C@@H](n2cc(-c3nc(Cl)cs3)nn2)[C@@H](O)[C@@H](CO)O[C@@H]1Sc1cc2scnc2cc1C#N [Example 100, 5-Cyano-1,3-benzothiazol-6-yl 3-[4-(4-chlorothiazol-2-yl)-1H-1,2,3-triazol-1-yl]-3-deoxy-2-O-methyl-1-thio-α-D-galactopyranoside] | 6.74 | 7.49 |
